Earlier results as cited in paper PMC7941644, “Identification and Development of Therapeutics for COVID-19” (ArXiv, 2021).

Tested on: SARS-CoV-2

For `CCC(CC)COC(=O)[C@H](C)N[P@](=O)(OC[C@H]1O[C@@](C#N)(c2ccc3c(N)ncnn23)[C@H](O)[C@@H]1O)Oc1ccccc1` [remdesivir], the “inhibition of SARS-CoV-2 in vitro” value is listed as “inhibit SARS-CoV-2, showing synergy with CQ in vitro”.
